Measurements taken from patent publication US4086417A, “Cytidine nucleotide derivatives” (Asahi Kasei Kogyo Kabushiki Kaisha, priority 1974, dated 1978).
In brackets after ≈: the same amount, converted by molar mass. Structures can show the parent of a compound that is named as a salt. Where two headings read alike, the source gives them in different places.

Tests used:
deoxycytidine deaminase = settings: background; cited from earlier work
[1] = cited from earlier work
leukemia L-1210 [2] = settings: background; cited from earlier work
leukemia L-1210 [3] = assay: Antitumour activity in mice inoculated intraperitoneally with leukemia L-1210 (survival, T/C); assay type: in vivo, CDF-1 male mice; settings: Mus musculus, L1210, ip, directly after injection of L-1210, after 2 days and after 6 days; for response vs control in vivo at 100 mg/kg: 100 mg/kg i.p.; for response vs control in vivo at 200 mg/kg: 200 mg/kg i.p.; for response vs control in vivo at 400 mg/kg: 400 mg/kg i.p.
Procedure: The antitumour activity for mice of the test material was evaluated by means of survival rate comparison, T/C (%), that is, 100 times the mean survival period of the groups injected with the test material divided by the mean survival period of the comparison groups which were not injected with the test material.
Further, for comparison, the following materials were also subjected to the same biological test: […]

[4] = Solubility test: solubility in water; assay type: physicochemical
Description: In the aforesaid examples, the products were obtained as white solids.
In Table 1, -Ara-C means "-1-β-D-arabinofuranosylcytosine" and -5'-Pna and -5'-PNa2 mean "-1-β-D-arabinofuranosylcytosine-5'-phosphate monosodium salt" and "-1-β-D-arabinofuranosylcytosine-5'-phosphate disodium salt," respectively.

Row | SMILES | Solubility in water [4] | solubility [4] | Solubility in water ([4]; monosodium salt) | Deamination / resistance to deaminase (in words) (deoxycytidine deaminase) | Biological half life / excretion (in words) ([1]; in vivo) | Antileukemial activity (in words) (leukemia L-1210 [2]) | Biological half life / excretion (in words) ([1]; background) | response vs control in vivo at 100 mg/kg (leukemia L-1210 [3]) | response vs control in vivo at 200 mg/kg (leukemia L-1210 [3]) | response vs control in vivo at 400 mg/kg (leukemia L-1210 [3])
1 | N=c1ccn2c(n1)O[C@H]1[C@H](O)[C@@H](CO)O[C@H]12 [2,2'-ANHYDROCYTOSINE ARABINOSIDE, 2,2'-anhydrocytosine arabinoside] | – | – | – | SHOWS HIGH RESISTANCE TO THE DEAMINOSE | the biological half life of this derivative is as short as that of cytosine arabinoside | does not have antileukemial activity | – | – | – | –
2 | Nc1ccn([C@@H]2O[C@H](CO)[C@@H](O)[C@@H]2O)c(=O)n1 [Ara-C, 1-β-D-arabinofuranosylcytosine] | – | – | – | readily converted into uracil arabinoside | – | one of the most effective known antileukemial agents | the biological half life of the medicament is short | 127% | 136% | 164%
3 | CCCCCCCCCCCCCCCCCC(=O)Nc1ccn([C@@H]2O[C@H](COP(=O)(O)O)[C@@H](O)[C@@H]2O)c(=O)n1 [N^4 -Stearoyl-5'-PNa, N^4-stearoyl-1-β-D-arabinofuranosylcytosine-5'-phosphate monosodium salt] | – | – | > 10000 µg/mL | – | – | – | – | > 363% | > 338% | 104%
4 | O=c1ccn([C@@H]2O[C@H](CO)[C@@H](O)[C@@H]2O)c(=O)[nH]1 [uracil arabinoside] | – | – | – | – | – | possesses no antileukemial activity | – | – | – | –

The next lines start with results.

Row | Solubility in water [4] | solubility [4] | Solubility in water ([4]; monosodium salt) | SMILES | Deamination / resistance to deaminase (in words) (deoxycytidine deaminase) | Biological half life / excretion (in words) ([1]; in vivo) | Antileukemial activity (in words) (leukemia L-1210 [2]) | Biological half life / excretion (in words) ([1]; background) | response vs control in vivo at 100 mg/kg (leukemia L-1210 [3]) | response vs control in vivo at 200 mg/kg (leukemia L-1210 [3]) | response vs control in vivo at 400 mg/kg (leukemia L-1210 [3])
5 | > 30000 µg/mL | – | – | CCCCCCCCCCCCCCCC(=O)Nc1ccn([C@@H]2O[C@H](COP(=O)(O)O)[C@@H](O)[C@@H]2O)c(=O)n1 [N^4 -Palmitoyl-5'-PNa, N^4-palmitoyl-1-β-D-arabinofuranosylcytosine-5'-phosphate monosodium] | – | – | – | – | > 349% | > 342% | 98%
6 | – | 10 µg/mL (≈ 20.8 µM) | – | CCCCCCCCCCCCCCCC(=O)Nc1ccn([C@@H]2O[C@H](CO)[C@@H](O)[C@@H]2O)c(=O)n1 [N^4 -Palmitoyl-Ara-C, N^4-palmitoyl-1-β-D-arabinofuranosylcytosine] | – | – | – | – | > 346% | 83% | 78%
7 | – | < 10 µg/mL | – | CCCCCCCCCCCCCCCCCC(=O)Nc1ccn([C@@H]2O[C@H](CO)[C@@H](O)[C@@H]2O)c(=O)n1 [N^4 -Stearoyl-Ara-C, N^4-stearoyl-1-β-D-arabinofuranosylcytosine] | – | – | – | – | > 274% | 123% | 111%
